Source: patent US9155714B2, “Compositions comprising an aromatic alcohol and a TRPV-1 antagonist, and uses thereof” (JOHNSON & JOHNSON CONSUMER INC., priority 2013, dated 2015)
Several values for one entry are separate records, joined by “and”; a condition that tells them apart may be missing. Equal values may be shown once.

Columns and labels:
Type in all cases: cell-based
[1] = target: T1, human vanilloid receptor-1 (TRPV-1) (Homo sapiens, UniProt Q8NER1); test: Calcium Flux Test, inhibition of phenethyl alcohol-induced calcium flux; settings: 10 uM capsazepine; for inhibition at 10 µM: read-out: (column without head; percent inhibition)
T1 construct: host or cells: HEK293
T1 sequence (Q8NER1 whole entry): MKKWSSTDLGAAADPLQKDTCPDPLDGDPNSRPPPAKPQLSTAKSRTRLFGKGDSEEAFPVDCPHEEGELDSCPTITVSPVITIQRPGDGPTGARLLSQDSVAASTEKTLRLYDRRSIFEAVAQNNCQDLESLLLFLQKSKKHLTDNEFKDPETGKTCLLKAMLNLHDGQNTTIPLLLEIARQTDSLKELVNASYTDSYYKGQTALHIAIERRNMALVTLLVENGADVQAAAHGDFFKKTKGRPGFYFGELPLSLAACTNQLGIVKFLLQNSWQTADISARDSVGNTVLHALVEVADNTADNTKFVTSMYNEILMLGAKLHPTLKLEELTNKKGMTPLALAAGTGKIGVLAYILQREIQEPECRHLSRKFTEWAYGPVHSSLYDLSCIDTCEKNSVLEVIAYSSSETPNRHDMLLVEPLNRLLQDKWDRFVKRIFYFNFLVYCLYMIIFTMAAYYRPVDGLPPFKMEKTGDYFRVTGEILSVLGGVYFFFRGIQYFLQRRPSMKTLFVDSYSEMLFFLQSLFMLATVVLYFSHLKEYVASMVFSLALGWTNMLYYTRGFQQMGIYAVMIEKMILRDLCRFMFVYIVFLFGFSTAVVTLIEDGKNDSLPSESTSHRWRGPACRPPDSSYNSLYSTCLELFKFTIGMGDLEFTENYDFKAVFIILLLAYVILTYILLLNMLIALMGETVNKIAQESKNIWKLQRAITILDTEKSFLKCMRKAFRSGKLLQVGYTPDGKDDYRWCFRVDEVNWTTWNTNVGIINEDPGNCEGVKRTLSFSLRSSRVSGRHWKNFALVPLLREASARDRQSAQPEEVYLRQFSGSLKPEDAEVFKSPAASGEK
Method: (§1) The Calcium Flux Test is performed in the following manner: Recombinant HEK293 cells expressing human vanilloid receptor-1 (TRPV-1; accession number AF196175, EMD Millipore, Billerica, Mass.) are grown in D-MEM/F-12 media (Life Technologies, Grand Island, N.Y.) supplemented with 10% fetal bovine serum, 1% non essential amino acids and 400 μg/mL Geneticin (Gibco, Life Technologies). Cells are plated at a concentration of 15,000 cells per well on poly-D-lysine-coated 384 well plates and incubated overnight at 5% CO2 and 37° C. After incubation, culture media is removed from the wells and replaced with 50 μL per well of Fluo-8 No Wash dye solution (#36315, AAT Bioquest, Sunnyvale, Calif.). The Fluo-8 dye solution is prepared by mixing 20 uL of Fluo-8 NW with 30 mL of 0.33× Pluronic® F127 Plus (BASF of Ludwigshafen, Germany) in assay buffer (1×HBSS+2% of HEPES). Fluo-8 dye is incubated for 30 minutes at room temperature. Intracellular calcium (Ca^2+) flux is monitored upon exposure to aromatic alcohol in DMSO vehicle by measuring fluorescence intensity at Ex/Em 490/525 on a Functional Drug Screening System (FDSS; Hamamatsu, […]). Measurements are taken every second for a period of 4 minutes. […] Statistical differences are obtained using One Way ANOVA with Tukey Post-hoc test; statistical significance is defined as P≦0.05.
(§2) The Maximum RFU obtained with a given concentration of aromatic alcohol is compared with the Maximum RFU obtained using the same concentration of aromatic alcohol but pretreated with the TRPV-1 antagonist for 5 minutes after dye incubation. Percent inhibition achieved with the TRPV-1 antagonist is calculated as: 100*((Maximum RFU of aromatic alcohol−Maximum RFU of aromatic alcohol pretreated with TRPV-1 antagonist)/Maximum RFU of aromatic alcohol).
Capsazepine was tested for activity as a TRPV-1 antagonist with different concentrations of phenethyl alcohol in DMSO as described in Example 2. […]

[2] = target: T1, human vanilloid receptor-1 (TRPV-1); test: Calcium Flux Test, phenoxyethanol replaced with capsaicin (capsaicin-induced calcium flux)
Method: as §1, §2
(§3) Capsazepine and AMG9810 were tested for activity as TRPV-1 antagonists using the Calcium Flux Test using two different concentrations of phenoxyethanol in DMSO. They were also tested using the Calcium Flux Test in which phenoxyethanol was replaced with capsaicin. […]

[3] = target: T1, human vanilloid receptor-1 (TRPV-1); test: Calcium Flux Test, inhibition of phenoxyethanol-induced calcium flux
Method: as §1, §2, §3

[4] = target: T1, human vanilloid receptor-1 (TRPV-1); test: Calcium Flux Test, inhibition of benzyl alcohol-induced calcium flux; settings: 10 uM capsazepine
Method: as §1, §2
Capsazepine was tested for activity as a TRPV-1 antagonist with different concentrations of benzyl alcohol in DMSO as described in Example 2. […]

[5] = capsazepine 2 nM, capsaicin 300 nM
[6] = capsazepine 10 nM, capsaicin 100 nM
[7] = capsazepine 10 nM, capsaicin 300 nM
[8] = capsazepine 39 nM, capsaicin 100 nM
[9] = capsazepine 39 nM, capsaicin 300 nM
[10] = capsazepine 156 nM, capsaicin 100 nM
[11] = capsazepine 156 nM, capsaicin 300 nM
[12] = capsazepine 625 nM, capsaicin 100 nM
[13] = capsazepine 625 nM, capsaicin 300 nM
[14] = capsazepine 2500 nM, capsaicin 100 nM
[15] = capsazepine 2500 nM, capsaicin 300 nM
[16] = capsazepine 10000 nM, capsaicin 100 nM
[17] = capsazepine 10000 nM, capsaicin 300 nM
[18] = capsazepine 0.6104 nM, phenoxyethanol 2 mM
[19] = capsazepine 0.6104 nM, phenoxyethanol 3 mM
[20] = capsazepine 2 nM, phenoxyethanol 2 mM
[21] = capsazepine 10 nM, phenoxyethanol 2 mM
[22] = capsazepine 10 nM, phenoxyethanol 3 mM
[23] = capsazepine 39 nM, phenoxyethanol 2 mM
[24] = capsazepine 39 nM, phenoxyethanol 3 mM
[25] = capsazepine 156 nM, phenoxyethanol 2 mM
[26] = capsazepine 156 nM, phenoxyethanol 3 mM
[27] = capsazepine 625 nM, phenoxyethanol 2 mM
[28] = capsazepine 625 nM, phenoxyethanol 3 mM
[29] = capsazepine 2500 nM, phenoxyethanol 2 mM
[30] = capsazepine 2500 nM, phenoxyethanol 3 mM
[31] = capsazepine 10000 nM, phenoxyethanol 2 mM
[32] = capsazepine 10000 nM, phenoxyethanol 3 mM

Maximum RFU ([1]; phenethyl alcohol 0 % w/v): 13.44 RFU and 17.46 ± 0.4 RFU
Maximum RFU ([1]; phenethyl alcohol 0.000002 % w/v): 12.76 RFU and 18.03 ± 3.35 RFU
Maximum RFU ([1]; phenethyl alcohol 0.000006 % w/v): 13.70 RFU and 18 ± 0.75 RFU
Maximum RFU ([1]; phenethyl alcohol 0.000018 % w/v): 13.60 RFU and 18.18 ± 0.59 RFU
Maximum RFU ([1]; phenethyl alcohol 0.00016 % w/v): 11.64 RFU and 19.48 ± 0.51 RFU
Maximum RFU ([1]; phenethyl alcohol 0.00048 % w/v): 11.71 RFU and 20.58 ± 0.6 RFU
Maximum RFU ([1]; phenethyl alcohol 0.0015 % w/v): 11.68 RFU and 18.5 ± 0.5 RFU
inhibition at 10 µM ([1]; phenethyl alcohol 0.0015 % w/v): 54.3%
(column without head; percent inhibition) ([1]; phenethyl alcohol 0.0044 % w/v): 56.15% and 80.22%
Maximum RFU ([1]; phenethyl alcohol 0.0044 % w/v): 11.56 RFU and 15.66 ± 0.4 RFU
(column without head; percent inhibition) ([1]; phenethyl alcohol 0.013 % w/v): 93.84%
inhibition at 10 µM ([1]; phenethyl alcohol 0.013 % w/v): 96.3%
(column without head; percent inhibition) ([1]; phenethyl alcohol 0.04 % w/v): 91.52%
Maximum RFU ([1]; phenethyl alcohol 0.04 % w/v): 26.42 RFU and 39.89 ± 5.81 RFU
inhibition at 10 µM ([1]; phenethyl alcohol 0.04 % w/v): 94%
(column without head; percent inhibition) ([1]; phenethyl alcohol 0.12 % w/v): 37.18%
Maximum RFU ([1]; phenethyl alcohol 0.12 % w/v): 345.95 RFU and 364.66 ± 13.76 RFU
inhibition at 10 µM ([1]; phenethyl alcohol 0.12 % w/v): 42.9%
Maximum RFU (mean ± SD) ([2]; capsazepine 2 nM, capsaicin 100 nM): 665.83 ± 90.25 RFU
Maximum RFU (mean ± SD) [2, 5]: 850.93 ± 28.65 RFU
inhibition at 0.002 µM [2, 5]: 1.16%
Maximum RFU (mean ± SD) [2, 6]: 461.29 ± 221.27 RFU
inhibition at 0.01 µM [2, 6]: 28.7%
Maximum RFU (mean ± SD) [2, 7]: 771.64 ± 25.92 RFU
inhibition at 0.01 µM [2, 7]: 10.4%
Maximum RFU (mean ± SD) [2, 8]: 187.95 ± 177.88 RFU
inhibition at 0.039 µM [2, 8]: 71%
Maximum RFU (mean ± SD) [2, 9]: 557.38 ± 79.48 RFU
inhibition at 0.039 µM [2, 9]: 35.3%
Maximum RFU (mean ± SD) [2, 10]: 29.36 ± 6.46 RFU
inhibition at 0.156 µM [2, 10]: 95.5%
Maximum RFU (mean ± SD) [2, 11]: 51.20 ± 14.34 RFU
inhibition at 0.156 µM [2, 11]: 94%
Maximum RFU (mean ± SD) [2, 12]: 24.39 ± 5.19 RFU
inhibition at 0.625 µM [2, 12]: 96.2%
Maximum RFU (mean ± SD) [2, 13]: 28.36 ± 3.16 RFU
inhibition at 0.625 µM [2, 13]: 96.7%
Maximum RFU (mean ± SD) [2, 14]: 27.61 ± 4.95 RFU
inhibition at 2.5 µM [2, 14]: 95.7%
Maximum RFU (mean ± SD) [2, 15]: 31.08 ± 3.44 RFU
inhibition at 2.5 µM [2, 15]: 96.4%
Maximum RFU (mean ± SD) [2, 16]: 45.31 ± 14.17 RFU
inhibition at 10 µM [2, 16]: 93%
Maximum RFU (mean ± SD) [2, 17]: 58.73 ± 4.40 RFU
inhibition at 10 µM [2, 17]: 93.2%
Maximum RFU (mean ± SD) ([3]; capsazepine 0.1526 nM, phenoxyethanol 2 mM): 319.33 ± 77.43 RFU
Maximum RFU (mean ± SD) ([3]; capsazepine 0.1526 nM, phenoxyethanol 3 mM): 508.45 ± 81.79 RFU
Maximum RFU (mean ± SD) [3, 18]: 210.03 ± 46.34 RFU
inhibition at 0.0006104 µM [3, 18]: 26.8%
Maximum RFU (mean ± SD) [3, 19]: 351.36 ± 32.21 RFU
inhibition at 0.0006104 µM [3, 19]: 20.5%
Maximum RFU (mean ± SD) [3, 20]: 236.10 ± 8.91 RFU
inhibition at 0.002 µM [3, 20]: 17.7%
Maximum RFU (mean ± SD) ([3]; capsazepine 2 nM, phenoxyethanol 3 mM): 486.75 ± 153.02 RFU
Maximum RFU (mean ± SD) [3, 21]: 154.95 ± 19.56 RFU
inhibition at 0.01 µM [3, 21]: 46%
Maximum RFU (mean ± SD) [3, 22]: 340.96 ± 12.96 RFU
inhibition at 0.01 µM [3, 22]: 22.8%
Maximum RFU (mean ± SD) [3, 23]: 75.06 ± 6.64 RFU
inhibition at 0.039 µM [3, 23]: 73.8%
Maximum RFU (mean ± SD) [3, 24]: 176.52 ± 75.37 RFU
inhibition at 0.039 µM [3, 24]: 60%
Maximum RFU (mean ± SD) [3, 25]: 87.54 ± 8.38 RFU
inhibition at 0.156 µM [3, 25]: 69.5%
Maximum RFU (mean ± SD) [3, 26]: 101.59 ± 2.44 RFU
inhibition at 0.156 µM [3, 26]: 77%
Maximum RFU (mean ± SD) [3, 27]: 57.76 ± 2.15 RFU
inhibition at 0.625 µM [3, 27]: 79.9%
Maximum RFU (mean ± SD) [3, 28]: 75.71 ± 3.39 RFU
inhibition at 0.625 µM [3, 28]: 82.9%
Maximum RFU (mean ± SD) [3, 29]: 84.79 ± 2.68 RFU
inhibition at 2.5 µM [3, 29]: 70.5%
Maximum RFU (mean ± SD) [3, 30]: 99.71 ± 6.08 RFU
inhibition at 2.5 µM [3, 30]: 77.4%
Maximum RFU (mean ± SD) [3, 31]: 79.39 ± 2.79 RFU
inhibition at 10 µM [3, 31]: 72.3%
Maximum RFU (mean ± SD) [3, 32]: 106.49 ± 4.15 RFU
inhibition at 10 µM [3, 32]: 75.9%
Maximum RFU ([4]; benzyl alcohol 0 % w/v): 13.30 RFU and 18.24 ± 1.3 RFU
Maximum RFU ([4]; benzyl alcohol 0.00000199 % w/v): 11.32 RFU and 18.74 ± 2.18 RFU
Maximum RFU ([4]; benzyl alcohol 0.00000598 % w/v): 9.46 RFU and 16.77 ± 1.48 RFU
Maximum RFU ([4]; benzyl alcohol 0.0000538 % w/v): 10.90 RFU and 18.44 ± 0.07 RFU
Maximum RFU ([4]; benzyl alcohol 0.001452 % w/v): 11.63 RFU and 15.7 ± 2.1 RFU
% Inhibition ([4]; benzyl alcohol 0.004357 % w/v): 72.51%
Maximum RFU ([4]; benzyl alcohol 0.004357 % w/v): 8.14 RFU and 15.33 ± 1 RFU
inhibition at 10 µM ([4]; benzyl alcohol 0.004357 % w/v): 74.2%
% Inhibition ([4]; benzyl alcohol 0.013072 % w/v): 82.58%
inhibition at 10 µM ([4]; benzyl alcohol 0.013072 % w/v): 88.8%
% Inhibition ([4]; benzyl alcohol 0.04 % w/v): 93.23%
Maximum RFU ([4]; benzyl alcohol 0.04 % w/v): 18.82 RFU and 28.72 ± 1.5 RFU
inhibition at 10 µM ([4]; benzyl alcohol 0.04 % w/v): 95.4%
Maximum RFU ([4]; benzyl alcohol 6.64E−07 % w/v): 11.79 RFU and 18.24 ± 2.53 RFU
Structure (SMILES): Oc1cc2c(cc1O)CN(C(=S)NCCc1ccc(Cl)cc1)CCC2 [Capsazepine, capsazepine]
